Reference: the supplement of paper PMC11208160

Assay: recombinant UMI read abundance after kanamycin selection (control-corrected) (log10(CPM+1)); higher = more efficient recombination; extreme values may be limits of the assay; sequences stand for … in AGTGCAGAGAAAATCGGCCAGTTTTCTCTGCCTGCAGTCCGCATGCCGTGGGACCCCTTGGGTTCTAACCTGTTGCCTAGATTTATGCAGCGGACTGCCTTTCTCCCAAAGTGATAAACCGG…AGGTTGGTTTCACT; site = the 11-nt donor
How it was run: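 For the IS621 bridge recombinase, a pooled Escherichia coli screen tested donor and donor-binding-loop pairs. Cells received the pair library together with a target plasmid encoding a fixed target and T7-inducible recombinase, then went onto IPTG (0.07 mM) plus kanamycin or unselected plates in duplicate. After PCR across the donor–target junction and sequencing, recombinant UMI counts were normalized to CPM, averaged, and scaled by control-derived factors. Each value is given as log10(CPM+1).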
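Also: IS621 bridge recombinase in Escherichia coli cells against a fixed T5 target plasmid.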

Sequence	recombinant UMI read abundance (log10)
ATCTATCCATGGACCGGTTTTCCCGGTAATCCGTATTTGCT (site ATCTATCCTAG)	1.24
AGAGTATCATGGACCGGTTTTCCCGGTAATCCGTATTTGTG (site AGAGTATCTCA)	2.98
ATAAGGGCATGGACCGGTTTTCCCGGTAATCCGTATTTGAC (site ATAAGGGCTGT)	2.79
ACACCTCCATGGACCGGTTTTCCCGGTAATCCGTATTTGAC (site ACACCTCCTGT)	1.93
TAGACTTCATGGACCGGTTTTCCCGGTAATCCGTATTTGGT (site TAGTCTTCTAC)	0.175
CGTTAGACATGGACCGGTTTTCCCGGTAATCCGTATTTGTG (site CGTTAGACTCC)	0.0241
CGGGAATCATGGACCGGTTTTCCCGGTAATCCGTATTTGAT (site CGGGAAACTAT)	1.23
CAGAAGCCATGGACCGGTTTTCCCGGTAATCCGTATTTGGT (site CAGAAGCCTAC)	0.535
GACCTAGCATGGACCGGTTTTCCCGGTAATCCGTATTTGAA (site GACCTAGCTTT)	0.349
TATTGAGCATGGACCGGTTTTCCCGGTAATCCGTATTTGGG (site TACTGAGCTCC)	0.0155
GTAGTCTCATGGACCGGTTTTCCCGGTAATCCGTATTTGCG (site GTAGTCACTCG)	1.31
GGTCCAACATGGACCGGTTTTCCCGGTAATCCGTATTTGTA (site GGTCAAACTTA)	0.0208
CCAGCATCATGGACCGGTTTTCCCGGTAATCCGTATTTGCT (site CGATCATCTAG)	0
TTCAACCCATGGACCGGTTTTCCCGGTAATCCGTATTTGGA (site TTCAACCCTTC)	0
GGCTGGCCATGGACCGGTTTTCCCGGTAATCCGTATTTGAT (site GGCTGGCCTAT)	0.0261
ATGCGTTCATGGACCGGTTTTCCCGGTAATCCGTATTTGCG (site ATGCGTTCTCG)	1.96
ATCGACCCATGGACCGGTTTTCCCGGTAATCCGTATTTGGT (site ATCGACCCTAC)	0
GACAAACCATGGACCGGTTTTCCCGGTAATCCGTATTTGGT (site GACTAACCTAC)	0
CAAGCGCCATGGACCGGTTTTCCCGGTAATCCGTATTTGTG (site CACGCGCCTCA)	0.0238
CGGTAGACATGGACCGGTTTTCCCGGTAATCCGTATTTGAG (site CGCTAGACTCT)	0.37
TTCGAGACATGGACCGGTTTTCCCGGTAATCCGTATTTGCA (site TTCGAGACTTG)	0.725
CCATTCTCATGGACCGGTTTTCCCGGTAATCCGTATTTGGG (site CCATTCTCTCC)	0
GGTGCAACATGGACCGGTTTTCCCGGTAATCCGTATTTGTA (site GGTACAACTTA)	0.01
CCCTACTCATGGACCGGTTTTCCCGGTAATCCGTATTTGGG (site CCCTGCTCTCC)	0.0112
ATAAAGGCATGGACCGGTTTTCCCGGTAATCCGTATTTGCT (site AAAAAGGCTAG)	0.238

Sequence	recombinant UMI read abundance (log10)
AGAGGACCATGGACCGGTTTTCCCGGTAATCCGTATTTGGG (site CGAGGACCTCC)	0.0261
CGATCATCATGGACCGGTTTTCCCGGTAATCCGTATTTGCT (site CTATCATCTAG)	1.22
CTCCACGCATGGACCGGTTTTCCCGGTAATCCGTATTTGTT (site CTCCACGCTAA)	1.57
TCATGCTCATGGACCGGTTTTCCCGGTAATCCGTATTTGCA (site TCATTCTCTTG)	0
GAGTGGACATGGACCGGTTTTCCCGGTAATCCGTATTTGAC (site GAATGGACTGT)	1.75
CGTTGGGCATGGACCGGTTTTCCCGGTAATCCGTATTTGCT (site CGTTCGGCTAG)	0
TAAAGTGCATGGACCGGTTTTCCCGGTAATCCGTATTTGTA (site TAAAGTTCTTA)	0
TATATGGCATGGACCGGTTTTCCCGGTAATCCGTATTTGTG (site TATGTGGCTCA)	0.00727
TAATGAGCATGGACCGGTTTTCCCGGTAATCCGTATTTGAG (site TAATGAGCTCA)	0.196
AGCTAACCATGGACCGGTTTTCCCGGTAATCCGTATTTGCA (site AGCTAACCTTG)	0
TCGACAGCATGGACCGGTTTTCCCGGTAATCCGTATTTGTA (site TCGACAGCTTA)	1.02
AACCGTGCATGGACCGGTTTTCCCGGTAATCCGTATTTGAT (site AACCGTCCTAT)	0.0261
CGCCGTACATGGACCGGTTTTCCCGGTAATCCGTATTTGCT (site CGCGGTACTAG)	0
GACAAACCATGGACCGGTTTTCCCGGTAATCCGTATTTGAT (site GACAAACCTAC)	0
CGCCCTACATGGACCGGTTTTCCCGGTAATCCGTATTTGAG (site CCCCCTACTCT)	0.0131
TAATGAGCATGGACCGGTTTTCCCGGTAATCCGTATTTGGG (site TAATGAGCTCT)	0.0248
CCATTATCATGGACCGGTTTTCCCGGTAATCCGTATTTGCT (site CCATTATCTAG)	1.49
TGGCCGGCATGGACCGGTTTTCCCGGTAATCCGTATTTGAC (site TGGCCGGCTGT)	1.4
GTGAATGCATGGACCGGTTTTCCCGGTAATCCGTATTTGGT (site GTGAATGCTAC)	2.73
AAGCACCCATGGACCGGTTTTCCCGGTAATCCGTATTTGGG (site AAGCACACTCC)	0.0118
TTGCTACCATGGACCGGTTTTCCCGGTAATCCGTATTTGAA (site TTGCTACCTTT)	0.0119
GATACGTCATGGACCGGTTTTCCCGGTAATCCGTATTTGTT (site GATACGTCTAA)	0.338
GTAGGCTCATGGACCGGTTTTCCCGGTAATCCGTATTTGCA (site GTAGGCTCTTG)	2.94
AGGTTCACATGGACCGGTTTTCCCGGTAATCCGTATTTGTG (site AGGTTCCCTCA)	0
ACTTGTGCATGGACCGGTTTTCCCGGTAATCCGTATTTGGT (site ACTAGTGCTAC)	0.652

Sequence	recombinant UMI read abundance (log10)
GATTAGACATGGACCGGTTTTCCCGGTAATCCGTATTTGCT (site TTGCTCCCTGT)	0
CTATACACATGGACCGGTTTTCCCGGTAATCCGTATTTGCT (site CTCTACACTAG)	1.53
CCCGGCCCATGGACCGGTTTTCCCGGTAATCCGTATTTGCA (site CCCGGTCCTTG)	0.0145
CTATCAACATGGACCGGTTTTCCCGGTAATCCGTATTTGCT (site CTATCAACTAG)	1.92
GGCTATCCATGGACCGGTTTTCCCGGTAATCCGTATTTGAA (site GGCAATCCTTT)	0.00767
TAATGAGCATGGACCGGTTTTCCCGGTAATCCGTATTTGCG (site TAATGAGCTCT)	0.626
AGTAAGACATGGACCGGTTTTCCCGGTAATCCGTATTTGCA (site AGTAAGACTTG)	2.57
ACACGAACATGGACCGGTTTTCCCGGTAATCCGTATTTGTG (site ACACGAACTGA)	0
GCGACGCCATGGACCGGTTTTCCCGGTAATCCGTATTTGTA (site GCTACGCCTTA)	0.019
ATTGAGGCATGGACCGGTTTTCCCGGTAATCCGTATTTGGT (site ATTGAGCCTAC)	0.486
CACTCCTCATGGACCGGTTTTCCCGGTAATCCGTATTTGAG (site CACTCCTCTCT)	0.883
ATCAATACATGGACCGGTTTTCCCGGTAATCCGTATTTGAC (site ATCTATACTGT)	0
CTGGTAGCATGGACCGGTTTTCCCGGTAATCCGTATTTGAC (site CTGGTAGCTGT)	2.85
AATTATGCATGGACCGGTTTTCCCGGTAATCCGTATTTGGA (site AATGATGCTTC)	0.482
TAATTGGCATGGACCGGTTTTCCCGGTAATCCGTATTTGTG (site TATTTGGCTCA)	0.00466
ATAGTATCATGGACCGGTTTTCCCGGTAATCCGTATTTGAC (site GTAGTATCTGT)	2.49
CAATGCTCATGGACCGGTTTTCCCGGTAATCCGTATTTGAA (site CAATGCTCTGT)	0.818
TTTACGTCATGGACCGGTTTTCCCGGTAATCCGTATTTGAT (site TTTACGTCTAT)	0.00816
CGATCGTCATGGACCGGTTTTCCCGGTAATCCGTATTTGCC (site CGATCATCTAG)	0
TTGAGCACATGGACCGGTTTTCCCGGTAATCCGTATTTGGA (site TTGAGCACTTC)	0.207
AATCTGGCATGGACCGGTTTTCCCGGTAATCCGTATTTGTA (site AATCTGGCTTA)	0.472
CATACACCATGGACCGGTTTTCCCGGTAATCCGTATTTGTA (site CATACACCTTA)	0.00749
AATTTGTCATGGACCGGTTTTCCCGGTAATCCGTATTTGAC (site AATATGTCTGT)	0
TGACGGTCATGGACCGGTTTTCCCGGTAATCCGTATTTGAA (site TGACGGTCTTT)	1.52
CTGGCTGCATGGACCGGTTTTCCCGGTAATCCGTATTTGGT (site CTGGCTGCTAC)	1.7
